Experimental data: publication PMC6095608 (PLoS ONE, 2018)

What was measured:
MATE1 = target: T1, MATE1 (Homo sapiens, UniProt Q96FL8); experiment: Inhibition of net [14C]-metformin uptake in MDCK-MATE1 cells; type: cell-based; conditions: 50 μM metformin, 5 min, pH 8.0, efavirenz 0.01–50 μM, read-out: IC50, inhibition of net MATE1-mediated [14C]-metformin uptake
T1 construct: expressed in transfected cells; host or cells: MDCKII (MDCK-MATE1)
Procedure: The singly-transfected OCT1, OCT2, MATE1 or control MDCK cells were seeded on 12-well plates at a density of 0.5 x 10^6 cells per well and cultivated in standard cultivation medium MEM (Gibco) + 10% FBS. Forty-eight hours after seeding, uptake experiments with radiolabelled metformin were performed. Cells were washed with 500 μl pre-warmed HBSS buffer of pH 7.4 (for OCTs) or 8.0 (for MATE1). Solutions of [^14C]-metformin (50 μM) in HBSS buffer of pH 7.4 or 8.0 with or without efavirenz were then added, and the resulting mixtures were left to stand for an accumulation period of 5 minutes. […] After the accumulation period, the solutions were aspirated and the cells were washed three times with 500 μl ice-cold HBSS buffer of pH 7.4 or 8.0 before being lysed with 0.02% sodium dodecyl sulphate (SDS). The intracellular accumulation of radioactivity was detected using a liquid scintillation counter (Tri-Carb 2910 TR Perkin Elmer), and protein concentrations in the cell lysates were measured by the BCA protein assay. Net transporter-mediated uptake was obtained by subtracting the accumulation of metformin in vector control cells from that in drug transporter-overexpressing cells.
A p value of ≤ 0.05 was considered statistically significant. […]

OCT1 [1] = target: T2, OCT1 (Homo sapiens, UniProt O15245); experiment: Transcellular transport assay across MDCK-OCT1 monolayers; type: cell-based; conditions: 10 μM efavirenz, 2 h
T2 construct: expressed in transfected cells; host or cells: MDCKII (MDCK-OCT1)
T2 sequence (O15245 1-554): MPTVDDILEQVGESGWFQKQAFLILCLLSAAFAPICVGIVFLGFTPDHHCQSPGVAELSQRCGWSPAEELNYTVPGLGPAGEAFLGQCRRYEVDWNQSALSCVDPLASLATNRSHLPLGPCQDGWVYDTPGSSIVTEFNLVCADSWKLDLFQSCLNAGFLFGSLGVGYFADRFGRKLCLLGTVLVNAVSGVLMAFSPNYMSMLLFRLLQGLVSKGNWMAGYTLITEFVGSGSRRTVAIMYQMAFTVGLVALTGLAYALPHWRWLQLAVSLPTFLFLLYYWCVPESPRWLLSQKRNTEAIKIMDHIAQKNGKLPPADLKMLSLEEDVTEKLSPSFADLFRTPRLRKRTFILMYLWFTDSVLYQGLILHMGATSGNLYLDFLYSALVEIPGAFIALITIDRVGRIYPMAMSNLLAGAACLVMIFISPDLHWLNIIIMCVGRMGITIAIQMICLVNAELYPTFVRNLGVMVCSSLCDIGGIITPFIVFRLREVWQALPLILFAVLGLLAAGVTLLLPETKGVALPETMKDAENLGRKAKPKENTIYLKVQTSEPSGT
Procedure: Transport experiments employing polarized monolayers of MDCK-OCT1, MDCK-OCT2, or MDCK-MATE1 cell lines as well as doubly transfected MDCK-OCT1-MATE1 or MDCK-OCT2-MATE1 lines and the non-transfected parental control MDCK-Co cells grown on Transwell 3402 cell culture inserts (3.0 μm pore size, 24 mm diameter; Costar, Corning, NY) were performed as described previously. The number of cells per well was 0.5 x 10^6 in all experiments, and the cells were incubated for 3 days to confluence in standard cultivation medium MEM (Gibco) + 10% FBS. After 3 days’ cultivation, medium was removed from both sides and the cells of the monolayer were washed using pre-warmed PBS. […] The pH of the medium on the basolateral side was 7.4, while that on the apical side was set to 6.0 (adjusted by adding HCl or NaOH, when necessary) to ensure optimal MATE1 transport activity. Cells were incubated at 37°C in 5% CO2 for 2 hours. At the end of the incubation period, 50 μl aliquots were sampled and the rest of the medium was immediately removed. The cells were then washed twice with ice-cold PBS, the membranes supporting cellular monolayers were excised, and the cells were dissolved in a 0.02% SDS solution. The radioactivity of the collected samples and lysed monolayers was measured by liquid scintillation counting (Tri-Carb 2910 TR Perkin Elmer), and the protein concentration of the cell lysates was quantified using the BCA protein assay. Transport rates were recorded in pmol per mg protein in the cellular monolayer.

MDCK cell lines = experiment: Cytotoxicity seen in accumulation assays in MDCK cell lines; type: cell-based, canine; conditions: 100 μM, highest tested concentration, all accumulation assays and MDCK cell lines
From the text: Therefore, both relative and absolute IC50 values are reported (Fig 3).

OCT1 [2] = system: OCT1; design: method as in PMID 25914645; conditions: OCT1-overexpressing KCL2 cells, 50 μM efavirenz; cited from earlier work
[3] = design: method as in PMID 16141277; conditions: humans, plasma proteins; cited from earlier work
MRP2 = MRP2 (Homo sapiens, UniProt Q92887); experiment: Calcein efflux assay in MDCK-MRP2 cells
Chain of MRP2 (Q92887 whole entry): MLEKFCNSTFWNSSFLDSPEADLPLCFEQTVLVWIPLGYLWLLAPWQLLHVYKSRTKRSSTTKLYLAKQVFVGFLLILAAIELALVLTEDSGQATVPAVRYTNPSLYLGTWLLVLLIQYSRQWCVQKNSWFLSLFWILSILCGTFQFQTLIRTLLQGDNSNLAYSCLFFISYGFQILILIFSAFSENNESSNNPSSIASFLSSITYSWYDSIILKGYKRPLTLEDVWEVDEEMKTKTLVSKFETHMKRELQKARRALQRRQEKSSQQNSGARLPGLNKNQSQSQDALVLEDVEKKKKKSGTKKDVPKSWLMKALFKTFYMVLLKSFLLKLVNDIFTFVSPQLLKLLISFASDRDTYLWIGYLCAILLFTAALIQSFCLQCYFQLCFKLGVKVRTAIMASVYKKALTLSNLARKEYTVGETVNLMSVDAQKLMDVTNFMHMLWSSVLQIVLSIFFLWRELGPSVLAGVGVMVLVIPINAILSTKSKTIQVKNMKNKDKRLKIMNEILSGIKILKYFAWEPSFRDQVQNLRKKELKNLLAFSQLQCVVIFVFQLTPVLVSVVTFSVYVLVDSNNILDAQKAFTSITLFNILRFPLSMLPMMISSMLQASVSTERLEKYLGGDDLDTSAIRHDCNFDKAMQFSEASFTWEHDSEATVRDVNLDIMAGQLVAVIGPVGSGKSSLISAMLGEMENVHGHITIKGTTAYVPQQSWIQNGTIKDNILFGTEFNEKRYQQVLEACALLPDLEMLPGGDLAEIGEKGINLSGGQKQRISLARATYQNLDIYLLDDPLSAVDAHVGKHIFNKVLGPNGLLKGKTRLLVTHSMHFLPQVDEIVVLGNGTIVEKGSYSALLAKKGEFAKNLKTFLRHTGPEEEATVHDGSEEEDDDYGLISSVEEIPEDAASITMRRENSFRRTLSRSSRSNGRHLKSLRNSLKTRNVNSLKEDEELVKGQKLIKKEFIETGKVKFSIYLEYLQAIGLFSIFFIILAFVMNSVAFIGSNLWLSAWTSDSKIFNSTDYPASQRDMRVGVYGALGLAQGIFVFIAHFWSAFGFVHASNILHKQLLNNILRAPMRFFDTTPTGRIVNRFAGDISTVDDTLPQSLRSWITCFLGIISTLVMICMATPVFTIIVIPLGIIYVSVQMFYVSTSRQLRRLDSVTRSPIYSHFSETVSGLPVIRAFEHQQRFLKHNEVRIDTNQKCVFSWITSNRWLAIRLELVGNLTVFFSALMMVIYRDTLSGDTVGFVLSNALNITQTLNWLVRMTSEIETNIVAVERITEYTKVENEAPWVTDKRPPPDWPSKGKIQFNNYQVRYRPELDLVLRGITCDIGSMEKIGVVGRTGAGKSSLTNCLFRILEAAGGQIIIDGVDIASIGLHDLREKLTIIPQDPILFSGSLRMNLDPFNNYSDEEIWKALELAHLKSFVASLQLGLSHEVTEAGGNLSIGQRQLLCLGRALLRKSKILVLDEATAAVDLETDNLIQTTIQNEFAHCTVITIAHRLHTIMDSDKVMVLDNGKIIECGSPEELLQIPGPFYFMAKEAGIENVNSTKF
Procedure: ABC transporter-expressing MDCK cells were seeded in 96-well plates at a density of 25 x 10^3 cells per well and cultivated in DMEM medium supplemented with 10% FBS. Forty-eight hours after seeding, the cells were used in accumulation experiments with Hoechst 33342 (a common fluorescent substrate of MDR1 and BCRP) or efflux assays with Calcein (a fluorescent substrate of MRP2). Briefly, at the end of the 48 hours, the medium was aspirated and the cells were washed with pre-warmed PBS and then preincubated with efavirenz in Opti-MEM for 30 minutes. In the Hoechst 33342 assays, a solution of Hoechst 33342 (50 μg/ml) in Opti-MEM was added and allowed to accumulate for 30 minutes. The experiment was stopped by aspirating the medium and washing the cells twice with ice cold PBS. Intracellular fluorescence was then measured using excitation and emission wavelengths of 350 nm and 465 nm, respectively. In the calcein efflux assays, a solution of calcein AM in Opti-MEM with or without efavirenz was added after the pre-incubation phase and allowed to accumulate for 15 minutes. […] Calcein fluorescence was measured using excitation and emission wavelengths of 496 nm and 516 nm, respectively.
Statistical analyses were performed using GraphPad Prism, version 7.03 (GraphPad Software, San Diego, CA). P values were calculated using multiple two-tailed t-tests or one-way ANOVA followed by Dunnett’s or Bonferroni’s multiple comparison test, as appropriate. […] The half-maximal inhibitory concentration (IC50) was calculated by non-linear regression analysis using sigmoidal Hill kinetics.
Model inhibitors of MDR1, BCRP and MRP2, namely LY335979 (LY, 1 μM), Ko143 (2.5 μM), and MK571 (10 μM), respectively, were used as positive controls at the minimal concentrations causing maximal inhibition in the corresponding cellular system and assay. […] Data were analyzed by one-way ANOVA followed by Bonferroni’s multiple comparison test (* P ≤ 0.05, ** P ≤ 0.01, *** P ≤ 0.001) and are presented as means ± SD of at least three experiments (n = 3–5) performed in triplicate.

T1 sequence (Q96FL8 whole entry): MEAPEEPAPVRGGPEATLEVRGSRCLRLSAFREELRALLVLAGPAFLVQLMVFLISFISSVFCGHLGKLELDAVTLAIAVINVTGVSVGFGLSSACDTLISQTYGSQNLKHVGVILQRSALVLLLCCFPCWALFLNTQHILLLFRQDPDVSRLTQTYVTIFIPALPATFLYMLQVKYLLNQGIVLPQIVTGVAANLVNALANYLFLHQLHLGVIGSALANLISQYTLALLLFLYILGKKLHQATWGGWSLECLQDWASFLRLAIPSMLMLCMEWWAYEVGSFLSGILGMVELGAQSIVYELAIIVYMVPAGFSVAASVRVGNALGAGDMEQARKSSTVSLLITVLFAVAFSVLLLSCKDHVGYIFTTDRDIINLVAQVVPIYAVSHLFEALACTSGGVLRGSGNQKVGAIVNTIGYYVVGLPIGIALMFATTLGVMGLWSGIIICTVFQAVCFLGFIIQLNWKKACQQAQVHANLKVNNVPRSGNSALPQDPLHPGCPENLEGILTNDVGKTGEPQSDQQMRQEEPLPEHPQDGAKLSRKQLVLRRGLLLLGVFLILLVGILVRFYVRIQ

- IC50 (MATE1): 3.85 µM
- Effect on basolateral-to-apical transport of [3H]-MPP+ (OCT1 [1]; 2 nM MPP+, MDCK-OCT1): Inhibition
- Effect on intracellular accumulation of [3H]-MPP+ (OCT1 [1]; 2 nM MPP+, MDCK-OCT1 monolayers): significantly reduced
- Effect on intracellular accumulation of [3H]-lamivudine (OCT1 [1]; 10 nM lamivudine, MDCK-OCT1): significantly reduced
- Effect on transcellular transport of [3H]-lamivudine (OCT1 [1]; 10 nM lamivudine, basal to apical, MDCK-OCT1): significantly inhibited
- IC50 (MRP2; MRP2 absolute IC50, calcein efflux, control inhibitor MK571 10 μM = 100%): 4.9 µM
- IC50 (MRP2; MRP2 relative IC50, calcein efflux, maximal inhibition by efavirenz alone = 100%): 1.6 µM
- Concentrations inhibiting the MRP2 drug transporter (MRP2; calcein AM 0.25 μM efflux assay): ≥ 1 µM
Compound: O=C1Nc2ccc(Cl)cc2[C@@](C#CC2CC2)(C(F)(F)F)O1 [efavirenz, Efavirenz]
- Cytotoxicity in MDCK cell lines (MDCK cell lines): cytotoxicity
- Reduction in tetraethylammonium accumulation (OCT1 [2]): 50.0%
- Median unbound percentage [3]: 0.63%
